According to US20090214464A1, “COMPOUNDS FOR FLAVIVIRIDAE TREATMENT” (priority 2004, published 2009):

What was measured:
[1] = system: HCV in PH5CH8 cells (non-neoplastic hepatocyte cell line); assay: in vitro HCV infection experiment in PH5CH8 cells; assay type: cell-based; conditions: PH5CH8 cells treated continuously; untreated cells increase about 10-fold
Protocol: (§1) Cell culture: Huh-7 and MH-14 cells, HCV replicon cells, are cultured in Dulbecco's modified Eagle's medium (DMEM) with 10% fetal bovine serum (FBS). PH5CH8 cells are cultured in a 1:1 mixture of DMEM and F12 medium supplemented with 100 ng/ml of epidermal growth factor, 10 μ/ml of insulin, 0.36 μg/ml of hydrocortisone, 5 μg/ml of transferrin, 5 μg/ml of linoleic acid, 20 ng/ml of selenium, 4 μg/ml of glucagon, 10 ng/ml of prolactin, 10 μg/ml of gentamicin, 200 μg/ml of kanamycin, and 2% FBS.
(§2) Real time RT-PCR analysis: The 5′-UTR of HCV genome RNA is quantified using the ABI PRISM 7700 sequence detector (AppliedBiosystems) as described by T. Takeuchi et al., Gastroenterology, 1999, 116, 636-642. The forward and reverse primers used in this experiment are 5′-[…]-3′ and 5′-[…]-3′, respectively. The fluorogenic probe is 5′-[…]-3′. As an internal control, ribosomal RNA is also quantified using TaqMan Ribosomal RNA Control Reagents (Applied Biosystems).

[2] = system: HCV subgenomic replicon in MH-14 cells; assay: immunoblot analysis of HCV NS5A and NS5B proteins in MH-14 HCV replicon cells; assay type: cell-based; conditions: 7 days
Protocol: as §1
Immunoblot analysis: Immunoblot analysis is performed as described by K. Watashi et al., Virology 2001, 286, 391-402. The primary antibodies used in this experiment are anti-NS5A, anti-NS5B, and anti-β-actin (Sigma) antibodies.
The effect of various cyclosporins of the invention on the replication of the HCV genome using MH-14 cells, in which the HCV subgenomic replicon as shown in FIG. 1A is autonomously replicated.

[3] = molecular target: human recombinant cyclophilin (Homo sapiens, UniProt P62937); assay: competitive ELISA test of cyclophilin binding (Binding Ratio); conditions: relative to cyclosporin A in a simultaneous test
Sequence of human recombinant cyclophilin (P62937 whole entry): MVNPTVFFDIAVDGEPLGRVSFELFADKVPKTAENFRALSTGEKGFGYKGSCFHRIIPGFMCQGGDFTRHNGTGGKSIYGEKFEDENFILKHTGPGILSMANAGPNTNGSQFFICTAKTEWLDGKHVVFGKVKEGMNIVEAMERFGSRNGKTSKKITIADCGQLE
Excerpt: A cyclosporin is considered as binding to cyclophilin if it binds to human recombinant cyclophilin at least one fifth as well as does cyclosporin A in the competitive ELISA test described by Quesniaux in Eur. J. Immunol. […] The results are expressed as the Binding Ratio (BR), which is the log to the base 10 of the ratio of the IC50 of the test compound and the IC50 in a simultaneous test of cyclosporin A itself.

[4] = system: Balb/c mice spleen cells stimulated with irradiated CBA spleen cells; assay: Mixed Lymphocyte Reaction (MLR); assay type: cell-based
Excerpt: Cyclosporins which bind strongly to cyclophilin but are not immunosuppressive have been identified. A cyclosporin is considered to be non-immunosuppressive when it has an activity in the Mixed Lymphocyte Reaction (MLR) of no more than 5%, preferably no more than 2%, that of cyclosporin A. The Mixed Lymphocyte Reaction is described by T. Meo in “Immunological Methods”, L. Lefkovits and B. Peris, Eds., Academic Press, N.Y. pp. 227-239 (1979). Spleen cells (0.5×10^6) from Balb/c mice (female, 8-10 weeks) are co-incubated for 5 days with 0.5×10^6 irradiated (2000 rads) or mitomycin C treated spleen cells from CBA mice (female, 8-10 weeks). The irradiated allogeneic cells induce a proliferative response in the Balb c spleen cells which can be measured by labeled precursor incorporation into the DNA. […] The IC50 found for the test compound in the MLR is compared with that found for cyclosporin A in a parallel experiment. In addition, non-immunosuppressive cyclosporins lack the capacity of inhibiting CN and the downstream NF-AT pathway.
IR=immunosuppressive Ratio, expressed as a percentage of the activity relative to Cyclosporin A.

[5] = system: HCV subgenomic replicon in MH-14 cells; conditions: 7th day
Protocol: as §2
(§3) Replicon RNA is analyzed in MH-14 cells treated with or without a cyclosporin of the invention or IFNα for 7 days by northern blot analysis.

[6] = system: HCV subgenomic replicon in MH-14 cells; assay: northern blot analysis of replicon RNA in MH-14 cells; assay type: cell-based; conditions: 1 μg/ml, 7 days
Protocol: as §1
Northern blot analysis: Northern blot analysis is performed as described by H. Kishine et al., Biochem. Biophys. Res. Commun., 2002, 47, 119-125. The probe complementary to the NS5B sequence used in this experiment is described by H. Kishine, supra.
as §3

[7] = system: HCV; conditions: ribavirin alone; cited from earlier work

In the case of IFNα, the “increase of HCV RNA genome titer, 5th day versus 1st day post-inoculation” value [1] is reported as “not observed” and the “amount of HCV NS5A and NS5B proteins by immunoblot analysis” value ([2]; 100 U/ml, positive control) is reported as “undetectable”.
With [MeVa]^4-Ciclosporin the “BR (Binding Ratio: log to the base 10 of the ratio of the IC50 of the test compound and the IC50 of cyclosporin A)” value [3] was 0.1.
In the case of [γ-hydroxy-MeLeu]^9-Ciclosporin, the “BR (Binding Ratio: log to the base 10 of the ratio of the IC50 of the test compound and the IC50 of cyclosporin A)” value [3] is reported as 0.15 and the “IR (immunosuppressive Ratio, percentage of the activity relative to Cyclosporin A)” value [4] is reported as 2.9%.
For [MeAla]^6-Ciclosporin, the “BR (Binding Ratio: log to the base 10 of the ratio of the IC50 of the test compound and the IC50 of cyclosporin A)” value [3] was −0.4 and the “IR (immunosuppressive Ratio, percentage of the activity relative to Cyclosporin A)” value [4] was 3.2%.
For [8′-hydroxy-MeBmt]^1-Ciclosporin, the “BR (Binding Ratio: log to the base 10 of the ratio of the IC50 of the test compound and the IC50 of cyclosporin A)” value [3] was 0.35 and the “IR (immunosuppressive Ratio, percentage of the activity relative to Cyclosporin A)” value [4] was 1.8%.
In the case of [Melle]^4-Ciclosporin, the “BR (Binding Ratio: log to the base 10 of the ratio of the IC50 of the test compound and the IC50 of cyclosporin A)” value [3] is reported as −0.2, the “level of HCV RNA relative to the original” value [5] is reported as “about 1/400” and the “increase of HCV RNA genome titer, 5th day versus 1st day post-inoculation” value [1] is reported as “not observed”. For the same compound, the “amount of HCV NS5A and NS5B proteins by immunoblot analysis” value ([2]; 1 μg/ml) was “undetectable” and the “amount of replicon RNA by northern blot” value [6] was “undetectable level”.
In the case of [Ethyl-Ile]^4-Ciclosporin, the “BR (Binding Ratio: log to the base 10 of the ratio of the IC50 of the test compound and the IC50 of cyclosporin A)” value [3] is reported as 0.1.
In the case of `NC(=O)c1ncn([C@@H]2O[C@H](CO)[C@@H](O)[C@H]2O)n1` [Ribavirin, 1-β-D-ribofuranosyl-1-1,2,4-triazole-3-caroxamide], the “patients with serum amino transferase levels reduced to normal” value [7] is given as 40 % of patients and the “serum levels of HCV-RNA” value [7] is given as “does not lower”.
For [Ethyl-Val]^4-Ciclosporin, the “BR (Binding Ratio: log to the base 10 of the ratio of the IC50 of the test compound and the IC50 of cyclosporin A)” value [3] was 0.
For [MeVal]^5-Ciclosporin, the “BR (Binding Ratio: log to the base 10 of the ratio of the IC50 of the test compound and the IC50 of cyclosporin A)” value [3] was 0.4 and the “IR (immunosuppressive Ratio, percentage of the activity relative to Cyclosporin A)” value [4] was 5.3%.
